Experimental data taken from paper PMC5712521, “Dendrogenin A drives LXR to trigger lethal autophagy in cancers” (Nature Communications, 2017).
Where two headings read alike, the source gives them in different places.

What was measured:
[1] = tested on: AML patient samples; assay: Annexin-V/7AAD viability assay on AML patient samples (bulk and CD34+CD38−CD123+ progenitor/LSC); assay type: cell-based, human; details: for IC50: Homo sapiens, 48 h, panel of 61 AML patient samples
Description: The cytotoxic response to DDA of AML cells was determined by flow cytometry. Cells were exposed to DDA for 24 or 48 h then washed with cold phosphate-buffered saline (PBS) and resuspended in 200 µl of Annexin-V binding buffer. For the analysis of AML patient samples, cells were incubated with antibodies against the surface markers CD45-V450 (clone H130), CD34-PeCy7 (clone 8G12), CD38-APC (clone HB7) and CD123-PE (clone 9F5) (BD Pharmagen) before being resuspended in Annexin-V binding buffer. Annexin-V-fluorescein isothiocyanate (BD Pharmagen, clone 2331) and 7-aminoactinomycin D (7AAD) were then added, and the samples were incubated in the dark at room temperature for 15 min. The percentage of viable cells, Annexin-V-7AAD-negative cells, was scored using a flow cytometer.
(§1) AML patient and normal bone marrow samples were obtained from patients in the Hematology Department of Toulouse (France), after obtaining consent in accordance with the Declaration of Helsinki[67], and according to institutional guidelines. Samples were stored at the INSERM-1037 HIMIP collection (no. DC-2008-307-CPTP1 HIMIP). For some experiments, fresh leukemic blasts recovered at diagnosis were immediately treated with DDA. In other cases, frozen cells were thawed in IMDM medium with 20% FBS. Patient characteristics are shown in supplementary data 1. Normal bone marrow cells were subjected to Ficoll-Paque density gradient separation to isolate mononuclear cells, followed by CD34+ cell separation using high-gradient magnetic-activated cell sorting, according to the manufacturer’s manual. The in vivo assays were performed with cryopreserved cells.

[2] = tested on: HL60 tumors; assay: Subcutaneous HL60 tumor xenograft; assay type: in vivo, mice
Description: Exponentially growing cells were harvested, washed twice in PBS then resuspended in PBS. SKMEL-28, shSKMEL-28 clones (5 × 10^6 cells) and B16F10 (3 × 10^5) cells were injected subcutaneously (s.c.) into the flank of nude mice. HL60, KG1 and shKG1-clones (5 × 10^6) were inoculated s.c. into the flanks of NOD/SCID mice. When tumors were palpable, animals (n = 10–20 mice per group, as indicated) were randomized to receive either DDA (20 mg/kg) intraperitoneally (i.p.) or 40 mg/kg by oral gavage (p.o), once a day, or vehicle solvent for the indicated time. Animals were examined daily and body weights were measured twice a week. In all experiments, tumor volume was determined by direct measurement with a caliper and was calculated using the formula (width^2 × length)/2. At the end of experiments, mice were sacrificed and tumors were excised and divided for intra-tumoral DDA quantification, immunoblotting, or immunohistochemistry analyses. […]
(n=16- 20 mice/group) engrafted with KG1 cells or HL60 cells were treated with DDA (20 mg/kg/day, i.p.) or solvent vehicle (control). Tumor growth was monitored over time and was analyzed for significance using repeated measures ANOVA (***P<0.001). The mean tumor volumes ± SEM are shown. e Average tumor weight at the end of the experiments in d. *P<0.5, **P<0.01, ANOVA. f Mean tumor volumes measured at the end of the experiments for HL60 and KG1 graf ted into NOD/SCID or NMRI-Fo x1 -nude mice treated with DDA (40 mg/kg/day, p.o. or 20 mg/kg/day, i.p.) or solvent vehicle (control) (n=10- 20 mice per group). Values represent the means ± S.E.M. (**P<0.01, ***P<0.001, ANOVA). g Histochemical analysis of the expression of LC3 and P62 in HL60 tumor sections isolated from NOD/SCID mice treated or not with DDA (20 mg/kg/day, i.p.). h Quantification of LC3 punctate cells in shCTRL and shLXRβ KG1 tumors. i Quantification of DDA levels in tumors 4 h after the final administration of DDA. j Box plot of TCGA RNA-seq data from patients with melanoma showing that LXRβ is the predominant LXR isoform expressed. […]

[3] = tested on: normal hematopoietic progenitor cells; assay: Normal human CD34+ cells engrafted into NSG mice; assay type: in vivo; details: human BM CD34+ engrafted into NSG mice; 20 mg/kg/day i.p., 3 weeks
Text: as §1
The engraftment of human primary AML cells was performed on NSG mice. […] Two and a half weeks after the injection of human cells, mice were treated with DDA (20 mg/kg/day by IP injection) or vehicle as control for 2, 3 weeks, after which the engraftment of human AML and normal hematopoietic cells was measured in the bone marrow, spleen and brain by quantifying the percentage of hCD45+CD33+ cells by flow cytometry. The viability of AML cells was established by quantifying the percentage of hCD45+CD33+Annexin-V- cells.

[4] = tested on: SKMEL-28 tumors; assay: SKMEL-28 melanoma xenograft; assay type: in vivo, mice; details: human SKMEL-28; i.p. 20 mg/kg/day
Description: Exponentially growing cells were harvested, washed twice in PBS then resuspended in PBS. SKMEL-28, shSKMEL-28 clones (5 × 10^6 cells) and B16F10 (3 × 10^5) cells were injected subcutaneously (s.c.) into the flank of nude mice. HL60, KG1 and shKG1-clones (5 × 10^6) were inoculated s.c. into the flanks of NOD/SCID mice. When tumors were palpable, animals (n = 10–20 mice per group, as indicated) were randomized to receive either DDA (20 mg/kg) intraperitoneally (i.p.) or 40 mg/kg by oral gavage (p.o), once a day, or vehicle solvent for the indicated time. Animals were examined daily and body weights were measured twice a week. In all experiments, tumor volume was determined by direct measurement with a caliper and was calculated using the formula (width^2 × length)/2. At the end of experiments, mice were sacrificed and tumors were excised and divided for intra-tumoral DDA quantification, immunoblotting, or immunohistochemistry analyses.

CC(C)CCC[C@@H](C)[C@H]1CC[C@H]2[C@@H]3C[C@@H](NCCc4cnc[nH]4)[C@@]4(O)C[C@@H](O)CC[C@]4(C)[C@H]3CC[C@]12C [DDA, Dendrogenin A]
efficiency relative to cytarabine ([1]; AML bulk and progenitor/LSC (CD34+CD38−CD123+) subpopulation): 100 fold
IC50 ([1]; read-out: median IC50, cell viability): 3.3 µM
IC50 ([1]; read-out: range of IC50, cell viability): 1.2 to 11.3 µM
Tumor volume at the end of the experiment ([2]; NMRI-Fox1-nude mice, DDA i.p. 20mg/kg/d (control 726±81)): 203±72 mm3
Tumor volume at the end of the experiment ([2]; NOD/SCID mice, DDA i.p. 20mg/kg/d (control 2348±204)): 880±101 mm3
Tumor volume at the end of the experiment ([2]; NOD/SCID mice, DDA p.o. 40mg/kg/d (control 2348±204)): 812±66 mm3
effect on normal hematopoietic progenitor cells [3]: no effect
tumor growth [4]: significantly reduced the growth
